In brackets after ≈: the same amount, converted by molar mass.
Assays:
Assay type in all cases: cell-based
[1] = test system: Streptococcus pyogenes ATCC19615; experiment: MIC, microbroth dilution (NCCLS); conditions: rifS strain, THY Broth, 37° C., read-out: MIC
[2] = test system: Staphylococcus aureus ATCC29213 rpoB^H418Y; experiment: microbe, parasite or virus in culture; conditions: Staphylococcus aureus, ATCC29213; rifR strain; Cation-Adjusted Mueller-Hinton Broth, 37° C.; read-out: MIC
[3] = test system: Staphylococcus epidermidis ATCC12228; experiment: MIC, microbroth dilution (NCCLS); conditions: rifS strain, Cation-Adjusted Mueller-Hinton Broth, 37° C., read-out: MIC
[4] = test system: Streptococcus pneumoniae ATCC6303; experiment: MIC, microbroth dilution (NCCLS); conditions: rifS strain, THY Broth with 1 mg/mL catalase, 5% CO2, 37° C., read-out: MIC
[5] = test system: Haemophilus influenzae ATCC10211; experiment: MIC, microbroth dilution (NCCLS); conditions: rifS strain, BHI Broth with NAD and hematin, 37° C., read-out: MIC
[6] = test system: Staphylococcus aureus MT1222 gyrA^A116E grlB^S80F; experiment: microbe, parasite or virus in culture; conditions: cipR strain, Cation-Adjusted Mueller-Hinton Broth, 37° C., read-out: MIC
[7] = test system: Staphylococcus aureus ATCC29213; experiment: MIC, microbroth dilution (NCCLS); conditions: rifS strain, Cation-Adjusted Mueller-Hinton Broth, 37° C., read-out: MIC

Row | Compound | MIC [1] [µg/mL] | MIC [2] [µg/mL] | MIC [3] [µg/mL] | MIC [4] [µg/mL] | MIC [5] [µg/mL] | MIC [6] [µg/mL] | MIC [7] [µg/mL]
1 | CO[C@H]1/C=C/O[C@@]2(C)Oc3c(C)c(O)c4c(O)c(c(/C=N/N(C5CCN(C)CC5)C5CCN(c6cc7c(cc6F)c(=O)c(C(=O)O)cn7C6CC6)C5)c(O)c4c3C2=O)NC(=O)/C(C)=C\C=C\[C@H](C)[C@H](O)[C@@H](C)[C@@H](O)[C@@H](C)[C@H](OC(C)=O)[C@@H]1C (mixture of isomers) [Example 11, (R/S)-3-[1-(3-Carboxy-1-cyclopropyl-6-fluoro-4-oxo-1,4-dihydroquinolin-7-yl)-pyrrolidin-3-yl-N′-(1-methyl-piperidin-4-yl)-hydrazinomethylenyl]rifamycin SV] | 0.008 to 0.03 (≈ 0.00695 to 0.0261 µM) | 0.06 to 16 (≈ 0.0521 to 13.9 µM) | 0.008 to 0.1 (≈ 0.00695 to 0.0869 µM) | 0.008 to 0.06 (≈ 0.00695 to 0.0521 µM) | 0.125 to 4 (≈ 0.109 to 3.47 µM) | 0.008 to 0.125 (≈ 0.00695 to 0.109 µM) | 0.008 to 1 (≈ 0.00695 to 0.869 µM)
2 | CCn1cc(C(=O)O)c(=O)c2cc(F)c(N3CCN(/N=C/c4c5c(O)c6c(O)c(C)c7c(c6c4O)C(=O)[C@@](C)(O/C=C/[C@H](OC)[C@@H](C)[C@@H](OC(C)=O)[C@H](C)[C@H](O)[C@H](C)[C@@H](O)[C@@H](C)/C=C/C=C(/C)C(=O)N5)O7)C(C)C3)c(F)c21 (mixture of isomers) [Example 8, (R/S)-3-[4-(3-Carboxy-1-ethyl-6,8-difluoro-8-4-oxo-1,4-dihydroquinolin-7-yl)-2-methyl-piperazin-1-yl-aminomethylenyl]rifamycin SV] | 0.008 to 0.03 (≈ 0.00745 to 0.0279 µM) | 0.06 to 16 (≈ 0.0559 to 14.9 µM) | 0.008 to 0.1 (≈ 0.00745 to 0.0931 µM) | 0.008 to 0.06 (≈ 0.00745 to 0.0559 µM) | 0.125 to 4 (≈ 0.116 to 3.72 µM) | 0.008 to 0.125 (≈ 0.00745 to 0.116 µM) | 0.008 to 1 (≈ 0.00745 to 0.931 µM)
3 | COc1c(N2CCC(C(C)NC3CCN(/N=C/c4c5c(O)c6c(O)c(C)c7c(c6c4O)C(=O)[C@@](C)(O/C=C/[C@H](OC)[C@@H](C)[C@@H](OC(C)=O)[C@H](C)[C@H](O)[C@H](C)[C@@H](O)[C@@H](C)/C=C/C=C(/C)C(=O)N5)O7)CC3)C2)c(F)cc2c(=O)c(C(=O)O)cn(C3CC3)c12 (mixture of isomers) [Example 41, 3-{4-[1-(3-Carboxy-1-cyclopropyl-6-fluoro-8-methoxy-4-oxo-1,4-dihydroquinolin-7-yl)-pyrrolidin-3-yl-ethylamino]-piperidin-1-yl-aminomethylenyl}-rifamycin SV] | 0.008 to 0.03 | 0.06 to 16 | 0.008 to 0.1 | 0.008 to 0.06 | 0.125 to 4 | 0.008 to 0.125 | 0.008 to 1
4 | CO[C@H]1/C=C/O[C@@]2(C)Oc3c(C)c(O)c4c(O)c(c(/C=N/N5CCN(c6nc7c(cc6F)c(=O)c(C(=O)O)cn7C6CC6)CC5)c(O)c4c3C2=O)NC(=O)/C(C)=C\C=C\[C@H](C)[C@H](O)[C@@H](C)[C@@H](O)[C@@H](C)[C@H](OC(C)=O)[C@@H]1C [Example 35, 3-[4-(3-Carboxy-1-cyclopropyl-6-fluoro-4-oxo-1,4-dihydro-[1,8]naphthyridine-7-yl)-piperazin-1-yl-aminomethylenyl]-rifamycin SV] | 0.008 to 0.03 (≈ 0.00758 to 0.0284 µM) | 0.06 to 16 (≈ 0.0569 to 15.2 µM) | 0.008 to 0.1 (≈ 0.00758 to 0.0948 µM) | 0.008 to 0.06 (≈ 0.00758 to 0.0569 µM) | 0.125 to 4 (≈ 0.118 to 3.79 µM) | 0.008 to 0.125 (≈ 0.00758 to 0.118 µM) | 0.008 to 1 (≈ 0.00758 to 0.948 µM)
5 | COc1c(N2CC3CCCN(/N=C/C4=C5NC(=O)/C(C)=C\C=C\[C@H](C)[C@H](O)[C@@H](C)[C@@H](O)[C@@H](C)[C@H](OC(C)=O)[C@H](C)[C@@H](OC)/C=C/O[C@@]6(C)Oc7c(C)c(O)c(c(c7C6=O)C4=O)C5=O)C3C2)c(F)cc2c(=O)c(C(=O)O)cn(C3CC3)c12 (some centres unmarked) [Example 13, 3-[6-(3-Carboxy-1-cyclopropyl-6-fluoro-8-methoxy-4-oxo-1,4-dihydroquinolin-7-yl)-octahydropyrrolo[3,4-b]pyridin-1-yl-aminomethylenyl]rifamycin S] | 0.008 to 0.03 (≈ 0.00713 to 0.0267 µM) | 0.06 to 16 (≈ 0.0535 to 14.3 µM) | 0.008 to 0.1 (≈ 0.00713 to 0.0891 µM) | 0.008 to 0.06 (≈ 0.00713 to 0.0535 µM) | 0.125 to 4 (≈ 0.111 to 3.56 µM) | 0.008 to 0.125 (≈ 0.00713 to 0.111 µM) | 0.008 to 1 (≈ 0.00713 to 0.891 µM)
6 | CO[C@H]1/C=C/O[C@@]2(C)Oc3c(C)c(O)c4c(O)c(c(/C=N/N5CCN(c6cc7c(cc6F)c(=O)c(C(=O)O)cn7C6CC6)CC5)c(O)c4c3C2=O)NC(=O)/C(C)=C\C=C\[C@H](C)[C@H](O)[C@@H](C)[C@@H](O)[C@@H](C)[C@H](OC(C)=O)[C@@H]1C [Example 4, 3-[4-(3-Carboxy-1-cyclopropl-6-fluoro-4-oxo-1,4-dihydroquinolin-7-yl)piperazin-1-yl-aminomethylenyl]rifamycin SV] | 0.008 to 0.03 (≈ 0.00759 to 0.0285 µM) | 0.06 to 16 (≈ 0.0569 to 15.2 µM) | 0.008 to 0.1 (≈ 0.00759 to 0.0949 µM) | 0.008 to 0.06 (≈ 0.00759 to 0.0569 µM) | 0.125 to 4 (≈ 0.119 to 3.79 µM) | 0.008 to 0.125 (≈ 0.00759 to 0.119 µM) | 0.008 to 1 (≈ 0.00759 to 0.949 µM)
7 | COc1c(N2CCN(C(=O)C3CCN(/N=C/c4c5c(O)c6c(O)c(C)c7c(c6c4O)C(=O)[C@@](C)(O/C=C/[C@H](OC)[C@@H](C)[C@@H](OC(C)=O)[C@H](C)[C@H](O)[C@H](C)[C@@H](O)[C@@H](C)/C=C/C=C(/C)C(=O)N5)O7)CC3)CC2)c(F)cc2c(=O)c(C(=O)O)cn(C3CC3)c12 [Example 32, 3-{4-[4-(3-Carboxy-1-cyclopropyl-6-fluoro-8-methoxy-4-oxo-1,4-dihydroquinolin-7-yl)-piperazine-1-yl-carbonyl]-piperidin-1-yl-aminomethylenyl}-rifamycin SV] | 0.008 to 0.03 (≈ 0.00669 to 0.0251 µM) | 0.06 to 16 (≈ 0.0502 to 13.4 µM) | 0.008 to 0.1 (≈ 0.00669 to 0.0837 µM) | 0.008 to 0.06 (≈ 0.00669 to 0.0502 µM) | 0.125 to 4 (≈ 0.105 to 3.35 µM) | 0.008 to 0.125 (≈ 0.00669 to 0.105 µM) | 0.008 to 1 (≈ 0.00669 to 0.837 µM)
8 | COc1c(N2CCC(C3(N4CCN(/N=C/c5c6c(O)c7c(O)c(C)c8c(c7c5O)C(=O)[C@@](C)(O/C=C/[C@H](OC)[C@@H](C)[C@@H](OC(C)=O)[C@H](C)[C@H](O)[C@H](C)[C@@H](O)[C@@H](C)/C=C/C=C(/C)C(=O)N6)O8)CC4)CC3)C2)c(F)cc2c(=O)c(C(=O)O)cn(C3CC3)c12 (mixture of isomers) [Example 37, (R/S)-3-{4-[1-(3-Carboxy-1-cyclopropyl-6-fluoro-8-methoxy-4-oxo-1,4-dihydroquinoline-7-yl)-pyrrolidin-3-yl-cyclopropyl]-piperazin-1-yl-aminomethylenyl}-rifamycin SV] | 0.008 to 0.03 (≈ 0.0067 to 0.0251 µM) | 0.06 to 16 (≈ 0.0503 to 13.4 µM) | 0.008 to 0.1 (≈ 0.0067 to 0.0838 µM) | 0.008 to 0.06 (≈ 0.0067 to 0.0503 µM) | 0.125 to 4 (≈ 0.105 to 3.35 µM) | 0.008 to 0.125 (≈ 0.0067 to 0.105 µM) | 0.008 to 1 (≈ 0.0067 to 0.838 µM)
9 | CO[C@H]1/C=C/O[C@@]2(C)Oc3c(C)c(O)c4c(O)c(c(/C=N/N5CCN(c6c(F)cc7c(=O)c(C(=O)O)cn8c7c6OCC8C)CC5C)c(O)c4c3C2=O)NC(=O)/C(C)=C\C=C\[C@H](C)[C@H](O)[C@@H](C)[C@@H](O)[C@@H](C)[C@H](OC(C)=O)[C@@H]1C (mixture of isomers) [Example 44, (R/S)-3-[9-fluoro-3-methyl-10-(3-methyl-piperazin-1-hydrazinomethylenyl)-7-oxo-7H-pyrido[1,2,3-de]-1,4-benzoxazine-6-carboxylic acid]rifamycin SV] | 0.008 to 0.03 (≈ 0.00738 to 0.0277 µM) | 0.06 to 16 (≈ 0.0553 to 14.8 µM) | 0.008 to 0.1 (≈ 0.00738 to 0.0922 µM) | 0.008 to 0.06 (≈ 0.00738 to 0.0553 µM) | 0.125 to 4 (≈ 0.115 to 3.69 µM) | 0.008 to 0.125 (≈ 0.00738 to 0.115 µM) | 0.008 to 1 (≈ 0.00738 to 0.922 µM)
10 | CO[C@H]1/C=C/O[C@@]2(C)Oc3c(C)c(O)c4c(O)c(c(/C=N/N5CCN(c6c(F)cc7c(=O)c(C(=O)O)cn(C8CC8)c7c6Cl)CC5)c(O)c4c3C2=O)NC(=O)/C(C)=C\C=C\[C@H](C)[C@H](O)[C@@H](C)[C@@H](O)[C@@H](C)[C@H](OC(C)=O)[C@@H]1C [Example 40, 3-[4-(3-Carboxy-8-chloro-1-cyclopropyl-6-fluoro-4-oxo-1,4-dihydroquinolin-7-yl)-piperazin-1-yl-aminomethylenyl]-rifamycin SV] | 0.008 to 0.03 (≈ 0.00735 to 0.0276 µM) | 0.06 to 16 (≈ 0.0551 to 14.7 µM) | 0.008 to 0.1 (≈ 0.00735 to 0.0919 µM) | 0.008 to 0.06 (≈ 0.00735 to 0.0551 µM) | 0.125 to 4 (≈ 0.115 to 3.67 µM) | 0.008 to 0.125 (≈ 0.00735 to 0.115 µM) | 0.008 to 1 (≈ 0.00735 to 0.919 µM)
11 | CO[C@H]1/C=C/O[C@@]2(C)Oc3c(C)c(O)c4c(O)c(c(/C=N/NC5CCN(c6c(F)cc7c(=O)c(C(=O)O)cn(C8CC8)c7c6Cl)C5)c(O)c4c3C2=O)NC(=O)/C(C)=C\C=C\[C@H](C)[C@H](O)[C@@H](C)[C@@H](O)[C@@H](C)[C@H](OC(C)=O)[C@@H]1C (mixture of isomers) [Example 6, (R/S)-3-[1-(8-chloro-3-carboxy-1-cyclopropyl-6-fluoro-4-oxo-1,4-dihydroquinolin-7-yl)-pyrrolidin-3-ylhydrazinomethylenyl]rifamycin SV] | 0.008 to 0.03 (≈ 0.00735 to 0.0276 µM) | 0.06 to 16 (≈ 0.0551 to 14.7 µM) | 0.008 to 0.1 (≈ 0.00735 to 0.0919 µM) | 0.008 to 0.06 (≈ 0.00735 to 0.0551 µM) | 0.125 to 4 (≈ 0.115 to 3.67 µM) | 0.008 to 0.125 (≈ 0.00735 to 0.115 µM) | 0.008 to 1 (≈ 0.00735 to 0.919 µM)
